{
  "source": "patent US20220187282A1",
  "about": "“CARDIOMYOCYTE PROLIFERATION” (The Council of the Queensland Institute of Medical Research, priority 2019, published 2022)",
  "type_in_all_cases": "biochemical",
  "key": {"kinases [1]": {"molecular_target": "kinases (Homo sapiens, UniProt P49674)", "sequence (P49674 whole entry)": "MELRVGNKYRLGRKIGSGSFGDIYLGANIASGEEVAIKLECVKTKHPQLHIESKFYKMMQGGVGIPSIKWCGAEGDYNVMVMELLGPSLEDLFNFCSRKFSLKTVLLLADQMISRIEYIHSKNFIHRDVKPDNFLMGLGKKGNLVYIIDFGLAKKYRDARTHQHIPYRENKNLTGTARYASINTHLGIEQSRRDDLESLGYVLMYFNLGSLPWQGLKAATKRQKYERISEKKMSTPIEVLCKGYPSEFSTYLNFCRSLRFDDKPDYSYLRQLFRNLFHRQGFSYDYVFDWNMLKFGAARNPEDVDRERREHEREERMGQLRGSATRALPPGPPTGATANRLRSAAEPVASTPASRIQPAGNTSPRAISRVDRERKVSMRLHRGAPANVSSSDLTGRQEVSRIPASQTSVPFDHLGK", "conditions": "CSNK1E (CK1 epsilon) Z-Lyte SP; Test Conc(μM):ATP Conc(μM) 1:5"}, "kinases [2]": {"molecular_target": "kinases (Homo sapiens, UniProt P78362)", "conditions": "SRPK2 FRET-Z-Lyte SP; Test Conc(μM):ATP Conc(μM) 1:25"}, "kinases [3]": {"molecular_target": "kinases (Homo sapiens, UniProt Q8NEV4)", "conditions": "MYO3A (MYO3 alpha) Lantha SP; Test Conc(μM) 1"}, "kinases [4]": {"molecular_target": "kinases (Homo sapiens, UniProt Q15835)", "conditions": "GRK1 FRET-Lantha SP; Test Conc(μM) 1"}, "kinases [5]": {"molecular_target": "kinases (Homo sapiens, UniProt O00750)", "conditions": "PIK3C2B FRET-Adapta SP; Test Conc(μM):ATP Conc(μM) 1:10"}, "kinases [6]": {"molecular_target": "kinases (Homo sapiens, UniProt Q13873)", "conditions": "BMPR2 FRET-Lantha SP; Test Conc(μM) 1"}, "kinases [7]": {"molecular_target": "kinases (Homo sapiens, UniProt Q5VT25)", "conditions": "CDC42 BPA (MRCKA) Z-Lyte SP; Test Conc(μM):ATP Conc(μM) 1:5"}, "kinases [8]": {"molecular_target": "kinases (Homo sapiens, UniProt P17252)", "conditions": "PRKCA (PKC alpha) Z-Lyte SP; Test Conc(μM):ATP Conc(μM) 1:25"}, "kinases [9]": {"molecular_target": "kinases (Homo sapiens, UniProt Q9Y5S2)", "conditions": "CDC42 BPB (MRCKB) Z-Lyte SP; Test Conc(μM):ATP Conc(μM) 1:5"}, "kinases [10]": {"molecular_target": "kinases (Homo sapiens, UniProt Q32MK0)", "sequence (Q32MK0 whole entry)": "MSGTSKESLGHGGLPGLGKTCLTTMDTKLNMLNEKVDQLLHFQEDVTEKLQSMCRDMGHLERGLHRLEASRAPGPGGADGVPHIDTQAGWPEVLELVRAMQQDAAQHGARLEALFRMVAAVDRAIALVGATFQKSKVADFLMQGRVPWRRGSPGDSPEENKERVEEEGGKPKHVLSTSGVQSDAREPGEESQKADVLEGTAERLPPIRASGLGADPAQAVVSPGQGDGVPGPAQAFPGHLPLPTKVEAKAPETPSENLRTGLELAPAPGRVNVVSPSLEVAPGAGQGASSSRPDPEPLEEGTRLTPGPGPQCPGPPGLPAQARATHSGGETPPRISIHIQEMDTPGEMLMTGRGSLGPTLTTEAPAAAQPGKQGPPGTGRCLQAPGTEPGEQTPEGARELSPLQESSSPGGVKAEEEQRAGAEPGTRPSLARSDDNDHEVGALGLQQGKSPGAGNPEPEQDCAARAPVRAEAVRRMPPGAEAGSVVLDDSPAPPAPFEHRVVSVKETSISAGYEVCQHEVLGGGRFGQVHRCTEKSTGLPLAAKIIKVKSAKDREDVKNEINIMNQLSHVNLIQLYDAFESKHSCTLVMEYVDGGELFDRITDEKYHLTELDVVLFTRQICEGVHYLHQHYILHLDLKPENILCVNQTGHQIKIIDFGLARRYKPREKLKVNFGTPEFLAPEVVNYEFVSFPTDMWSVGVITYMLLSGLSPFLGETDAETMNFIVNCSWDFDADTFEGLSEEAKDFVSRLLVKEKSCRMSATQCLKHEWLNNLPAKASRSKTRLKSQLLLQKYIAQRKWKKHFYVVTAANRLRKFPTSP", "conditions": "MYLK3 Hu Bind FRET-Lantha SP; Test Conc(μM) 1"}, "kinases [11]": {"molecular_target": "kinases (Homo sapiens, UniProt O94768)", "sequence (O94768 whole entry)": "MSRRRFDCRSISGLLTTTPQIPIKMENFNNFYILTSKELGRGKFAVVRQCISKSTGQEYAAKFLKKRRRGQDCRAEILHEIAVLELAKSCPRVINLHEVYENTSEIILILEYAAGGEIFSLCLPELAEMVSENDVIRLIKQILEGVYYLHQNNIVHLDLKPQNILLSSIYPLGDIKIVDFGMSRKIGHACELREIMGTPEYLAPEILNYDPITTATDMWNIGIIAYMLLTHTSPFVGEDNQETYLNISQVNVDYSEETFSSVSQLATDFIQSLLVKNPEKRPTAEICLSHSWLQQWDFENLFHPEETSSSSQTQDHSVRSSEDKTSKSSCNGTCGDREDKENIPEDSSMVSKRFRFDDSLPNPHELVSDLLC", "conditions": "STK17B (DRAK2) FRET-Lantha SP; Test Conc(μM) 1"}, "kinases [12]": {"molecular_target": "kinases (Homo sapiens, UniProt P50750)", "sequence (P50750 whole entry)": "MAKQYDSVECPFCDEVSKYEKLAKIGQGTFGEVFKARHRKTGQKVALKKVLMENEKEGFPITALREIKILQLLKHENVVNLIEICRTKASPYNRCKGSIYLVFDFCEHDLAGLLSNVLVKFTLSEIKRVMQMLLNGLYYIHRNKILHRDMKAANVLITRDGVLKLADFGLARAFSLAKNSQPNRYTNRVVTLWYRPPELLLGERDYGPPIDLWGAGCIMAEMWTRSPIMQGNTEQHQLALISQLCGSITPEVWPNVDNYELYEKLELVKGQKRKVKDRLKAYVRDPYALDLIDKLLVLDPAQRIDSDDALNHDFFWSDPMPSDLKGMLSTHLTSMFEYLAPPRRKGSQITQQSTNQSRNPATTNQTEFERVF"}, "kinases [13]": {"molecular_target": "kinases (Homo sapiens, UniProt Q99640)", "conditions": "PKMYT1 FRET-Lantha SP; Test Conc(μM) 1"}, "kinases [14]": {"molecular_target": "kinases (Homo sapiens, UniProt Q8TD19)", "conditions": "NEK9 *Mn* FRET-Z-Lyte SP; Test Conc(μM):ATP Conc(μM) 1:100"}, "kinases [15]": {"molecular_target": "kinases (Homo sapiens, UniProt Q96RG2)", "conditions": "PASK FRET-Z-Lyte SP; Test Conc(μM):ATP Conc(μM) 1:50"}, "kinases [16]": {"molecular_target": "kinases (Homo sapiens, UniProt P52333)", "conditions": "JAK3 FRET-Z-Lyte SP; Test Conc(μM):ATP Conc(μM) 1:10"}, "kinases [17]": {"molecular_target": "kinases (Homo sapiens, UniProt P07333)", "conditions": "CSF1R (FMS) FRET-Z-Lyte SP; Test Conc(μM):ATP Conc(μM) 1:500"}, "kinases [18]": {"molecular_target": "kinases (Homo sapiens, UniProt P50613)", "conditions": "CDK7/cyclin H/MNAT1 Adapta SP; Test Conc(μM):ATP Conc(μM) 1:150"}, "kinases [19]": {"molecular_target": "kinases (Homo sapiens, UniProt Q13705)", "sequence (Q13705 19-512)": "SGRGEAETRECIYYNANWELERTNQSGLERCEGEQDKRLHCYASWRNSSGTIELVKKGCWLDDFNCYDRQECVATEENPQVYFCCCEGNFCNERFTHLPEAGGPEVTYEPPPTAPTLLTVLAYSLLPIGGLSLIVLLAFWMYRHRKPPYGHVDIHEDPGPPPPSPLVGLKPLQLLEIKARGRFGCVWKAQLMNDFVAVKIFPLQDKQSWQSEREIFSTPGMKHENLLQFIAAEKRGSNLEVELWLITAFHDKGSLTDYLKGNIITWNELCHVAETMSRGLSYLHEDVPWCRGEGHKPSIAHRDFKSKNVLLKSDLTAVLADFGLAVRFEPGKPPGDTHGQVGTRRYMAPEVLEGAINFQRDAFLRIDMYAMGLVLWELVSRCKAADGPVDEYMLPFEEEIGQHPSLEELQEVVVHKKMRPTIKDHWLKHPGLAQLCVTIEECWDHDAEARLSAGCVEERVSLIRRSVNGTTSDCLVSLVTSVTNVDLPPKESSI", "conditions": "ACVR2B FRET-Lantha SP; Test Conc(μM) 1"}, "kinases [20]": {"molecular_target": "kinases (Homo sapiens, UniProt P51451)", "conditions": "BLK FRET-Z-Lyte SP; Test Conc(μM):ATP Conc(μM) 1:25"}, "kinases [21]": {"molecular_target": "kinases (Homo sapiens, UniProt P80192)", "conditions": "MAP3K9 (MLK1) FRET-Z-Lyte SP; Test Conc(μM):ATP Conc(μM) 1:75"}, "kinases [22]": {"molecular_target": "kinases (Homo sapiens, UniProt Q13554)", "conditions": "CAMK2B FRET-Z-Lyte SP; Test Conc(μM):ATP Conc(μM) 1:75"}, "kinases [23]": {"molecular_target": "kinases (Homo sapiens, UniProt Q9HBY8)", "sequence (Q9HBY8 whole entry)": "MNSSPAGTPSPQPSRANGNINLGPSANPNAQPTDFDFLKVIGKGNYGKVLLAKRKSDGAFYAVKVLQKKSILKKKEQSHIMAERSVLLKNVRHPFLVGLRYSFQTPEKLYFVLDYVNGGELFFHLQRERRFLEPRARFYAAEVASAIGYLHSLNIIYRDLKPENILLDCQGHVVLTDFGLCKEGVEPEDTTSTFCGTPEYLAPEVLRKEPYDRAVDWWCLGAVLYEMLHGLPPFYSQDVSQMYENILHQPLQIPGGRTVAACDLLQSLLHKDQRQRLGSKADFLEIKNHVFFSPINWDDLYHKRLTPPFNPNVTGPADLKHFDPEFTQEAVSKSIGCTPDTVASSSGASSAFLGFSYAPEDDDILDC", "conditions": "SGK2 FRET-Z-Lyte SP; Test Conc(μM):ATP Conc(μM) 1:50"}, "kinases [24]": {"molecular_target": "kinases (Homo sapiens, UniProt Q14164)", "sequence (Q14164 whole entry)": "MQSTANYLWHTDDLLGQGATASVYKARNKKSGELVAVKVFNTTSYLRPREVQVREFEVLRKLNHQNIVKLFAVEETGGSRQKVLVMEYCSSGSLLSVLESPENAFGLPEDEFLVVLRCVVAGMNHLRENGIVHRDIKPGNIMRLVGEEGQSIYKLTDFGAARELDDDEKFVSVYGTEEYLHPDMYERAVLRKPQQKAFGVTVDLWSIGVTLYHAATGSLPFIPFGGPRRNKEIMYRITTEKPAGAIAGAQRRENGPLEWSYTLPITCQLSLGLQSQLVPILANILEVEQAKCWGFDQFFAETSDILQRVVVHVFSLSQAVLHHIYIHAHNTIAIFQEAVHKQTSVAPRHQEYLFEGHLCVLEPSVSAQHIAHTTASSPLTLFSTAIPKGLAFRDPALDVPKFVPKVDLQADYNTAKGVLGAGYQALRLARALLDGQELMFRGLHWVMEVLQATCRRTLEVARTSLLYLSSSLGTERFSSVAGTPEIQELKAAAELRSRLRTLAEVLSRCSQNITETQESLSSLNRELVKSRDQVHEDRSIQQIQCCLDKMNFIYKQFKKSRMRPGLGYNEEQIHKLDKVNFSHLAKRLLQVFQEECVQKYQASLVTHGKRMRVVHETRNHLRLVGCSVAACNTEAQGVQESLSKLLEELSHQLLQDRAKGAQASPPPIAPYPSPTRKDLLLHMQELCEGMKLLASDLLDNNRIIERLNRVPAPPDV", "conditions": "IKBKE (IKK epsilon) Z-Lyte SP; Test Conc(μM):ATP Conc(μM) 1:10"}, "kinases [25]": {"molecular_target": "kinases (Homo sapiens, UniProt Q09013)", "conditions": "DMPK FRET-Lantha SP; Test Conc(μM) 1"}, "kinases [26]": {"molecular_target": "kinases (Homo sapiens, UniProt O75385)", "conditions": "ULK1 FRET-Lantha SP; Test Conc(μM) 1"}, "kinases [27]": {"molecular_target": "kinases (Homo sapiens, UniProt Q15349)", "sequence (Q15349 whole entry)": "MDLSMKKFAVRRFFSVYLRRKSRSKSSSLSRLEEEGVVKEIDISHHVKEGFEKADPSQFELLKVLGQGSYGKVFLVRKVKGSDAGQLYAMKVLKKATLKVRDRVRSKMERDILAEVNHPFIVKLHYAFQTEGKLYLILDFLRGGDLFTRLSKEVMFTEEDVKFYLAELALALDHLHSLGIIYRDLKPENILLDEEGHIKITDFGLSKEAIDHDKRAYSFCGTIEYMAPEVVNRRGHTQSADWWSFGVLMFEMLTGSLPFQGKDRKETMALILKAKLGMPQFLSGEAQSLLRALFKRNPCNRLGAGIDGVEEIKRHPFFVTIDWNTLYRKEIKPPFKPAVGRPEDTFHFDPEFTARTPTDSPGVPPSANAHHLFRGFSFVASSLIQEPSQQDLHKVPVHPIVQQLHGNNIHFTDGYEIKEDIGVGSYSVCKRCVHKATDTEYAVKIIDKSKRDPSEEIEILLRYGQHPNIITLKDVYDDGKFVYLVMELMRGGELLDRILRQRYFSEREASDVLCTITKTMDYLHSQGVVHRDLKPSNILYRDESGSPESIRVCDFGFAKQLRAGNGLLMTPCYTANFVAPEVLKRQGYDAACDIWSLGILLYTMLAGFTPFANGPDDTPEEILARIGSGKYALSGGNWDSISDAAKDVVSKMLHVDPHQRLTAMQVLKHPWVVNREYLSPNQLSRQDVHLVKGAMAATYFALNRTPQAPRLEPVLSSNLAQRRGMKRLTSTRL", "conditions": "RPS6KA2 (RSK3) FRET-Z-Lyte SP; Test Conc(μM):ATP Conc(μM) 1:10"}, "kinases [28]": {"molecular_target": "kinases (Homo sapiens, UniProt P21709)", "conditions": "EPHA1 FRET-Z-Lyte SP; Test Conc(μM):ATP Conc(μM) 1:25"}, "[29]": {"conditions": "CDK9 (Inactive) FRET-Lantha SP, Test Conc(μM) 1"}, "[30]": {"conditions": "CDK9/cyclin K FRET-Lantha SP, Test Conc(μM) 1"}, "[31]": {"conditions": "CDK9/cyclin T1 FRET-Adapta SP, Test Conc(μM):ATP Conc(μM) 1:25"}},
  "note": "Where two headings read alike, the source gives them in different places.",
  "data": [
    {"compound": "Cc1ccc(NC(=O)c2ccnc(N3CCOCC3)c2)cc1Nc1ccnc(N2CC(C)OC(C)C2)n1", "note": "(stereo not drawn) [compound 3]", "values": [
      {"measurement": "Mean Inhib (%)", "setting": "kinases [1]", "value": 5.8, "unit": "%"},
      {"measurement": "Mean Inhib (%)", "setting": "kinases [2]", "value": "−1.9", "unit": "%"},
      {"measurement": "Mean Inhib (%)", "setting": "kinases [3]", "value": 10.8, "unit": "%"},
      {"measurement": "Mean Inhib (%)", "setting": "kinases [4]", "value": "−3.1", "unit": "%"},
      {"measurement": "Mean Inhib (%)", "setting": "kinases [5]", "value": 3.7, "unit": "%"},
      {"measurement": "Mean Inhib (%)", "setting": "kinases [6]", "value": "−4.1", "unit": "%"},
      {"measurement": "Mean Inhib (%)", "setting": "kinases [7]", "value": "−2.0", "unit": "%"},
      {"measurement": "Mean Inhib (%)", "setting": "kinases [8]", "value": 23.3, "unit": "%"},
      {"measurement": "Mean Inhib (%)", "setting": "kinases [9]", "value": "−7.0", "unit": "%"},
      {"measurement": "Mean Inhib (%)", "setting": "kinases [10]", "value": 4.5, "unit": "%"},
      {"measurement": "Mean Inhib (%)", "setting": "kinases [11]", "value": 4.7, "unit": "%"},
      {"measurement": "Mean Inhib (%)", "setting": "kinases [12]; [29]", "value": 6.2, "unit": "%"},
      {"measurement": "Mean Inhib (%)", "setting": "kinases [12]; [30]", "value": "−1.9", "unit": "%"},
      {"measurement": "Mean Inhib (%)", "setting": "kinases [12]; [31]", "value": 17.2, "unit": "%"},
      {"measurement": "Mean Inhib (%)", "setting": "kinases [13]", "value": 9.3, "unit": "%"},
      {"measurement": "Mean Inhib (%)", "setting": "kinases [14]", "value": 1.8, "unit": "%"},
      {"measurement": "Mean Inhib (%)", "setting": "kinases [15]", "value": 13.7, "unit": "%"},
      {"measurement": "Mean Inhib (%)", "setting": "kinases [16]", "value": 7.2, "unit": "%"},
      {"measurement": "Mean Inhib (%)", "setting": "kinases [17]", "value": 12.1, "unit": "%"},
      {"measurement": "Mean Inhib (%)", "setting": "kinases [18]", "value": "−2.3", "unit": "%"},
      {"measurement": "Mean Inhib (%)", "setting": "kinases [19]", "value": "−2.1", "unit": "%"},
      {"measurement": "Mean Inhib (%)", "setting": "kinases [20]", "value": 3.0, "unit": "%"},
      {"measurement": "Mean Inhib (%)", "setting": "kinases [21]", "value": 1.3, "unit": "%"},
      {"measurement": "Mean Inhib (%)", "setting": "kinases [22]", "value": 4.5, "unit": "%"},
      {"measurement": "Mean Inhib (%)", "setting": "kinases [23]", "value": 1.2, "unit": "%"},
      {"measurement": "Mean Inhib (%)", "setting": "kinases [24]", "value": "−3.5", "unit": "%"},
      {"measurement": "Mean Inhib (%)", "setting": "kinases [25]", "value": 7.1, "unit": "%"},
      {"measurement": "Mean Inhib (%)", "setting": "kinases [26]", "value": 1.6, "unit": "%"},
      {"measurement": "Mean Inhib (%)", "setting": "kinases [27]", "value": 9.0, "unit": "%"},
      {"measurement": "Mean Inhib (%)", "setting": "kinases [28]", "value": 6.7, "unit": "%"}
    ]},
    {"compound": "Cc1cc(Oc2ccnc(Nc3ccc(S(N)(=O)=O)cc3)c2)c(-c2ccccn2)nc1C", "note": "[compound 65]", "values": [
      {"measurement": "Mean Inhib (%)", "setting": "kinases [1]", "value": 2.8, "unit": "%"},
      {"measurement": "Mean Inhib (%)", "setting": "kinases [2]", "value": 1.9, "unit": "%"},
      {"measurement": "Mean Inhib (%)", "setting": "kinases [3]", "value": 1.6, "unit": "%"},
      {"measurement": "Mean Inhib (%)", "setting": "kinases [4]", "value": 3.7, "unit": "%"},
      {"measurement": "Mean Inhib (%)", "setting": "kinases [5]", "value": "−0.9", "unit": "%"},
      {"measurement": "Mean Inhib (%)", "setting": "kinases [6]", "value": 2.7, "unit": "%"},
      {"measurement": "Mean Inhib (%)", "setting": "kinases [7]", "value": "−2.0", "unit": "%"},
      {"measurement": "Mean Inhib (%)", "setting": "kinases [8]", "value": "−2.0", "unit": "%"},
      {"measurement": "Mean Inhib (%)", "setting": "kinases [9]", "value": "−5.0", "unit": "%"},
      {"measurement": "Mean Inhib (%)", "setting": "kinases [10]", "value": 0.8, "unit": "%"},
      {"measurement": "Mean Inhib (%)", "setting": "kinases [11]", "value": 2.0, "unit": "%"},
      {"measurement": "Mean Inhib (%)", "setting": "kinases [12]; [29]", "value": 6.9, "unit": "%"},
      {"measurement": "Mean Inhib (%)", "setting": "kinases [12]; [30]", "value": 2.6, "unit": "%"},
      {"measurement": "Mean Inhib (%)", "setting": "kinases [12]; [31]", "value": 6.2, "unit": "%"},
      {"measurement": "Mean Inhib (%)", "setting": "kinases [13]", "value": "−14.5", "unit": "%"},
      {"measurement": "Mean Inhib (%)", "setting": "kinases [14]", "value": "−4.1", "unit": "%"},
      {"measurement": "Mean Inhib (%)", "setting": "kinases [15]", "value": 3.8, "unit": "%"},
      {"measurement": "Mean Inhib (%)", "setting": "kinases [16]", "value": "−7.8", "unit": "%"},
      {"measurement": "Mean Inhib (%)", "setting": "kinases [17]", "value": 20.0, "unit": "%"},
      {"measurement": "Mean Inhib (%)", "setting": "kinases [18]", "value": "−2.2", "unit": "%"},
      {"measurement": "Mean Inhib (%)", "setting": "kinases [19]", "value": 95.6, "unit": "%"},
      {"measurement": "Mean Inhib (%)", "setting": "kinases [20]", "value": 9.7, "unit": "%"},
      {"measurement": "Mean Inhib (%)", "setting": "kinases [21]", "value": 3.4, "unit": "%"},
      {"measurement": "Mean Inhib (%)", "setting": "kinases [22]", "value": 11.4, "unit": "%"},
      {"measurement": "Mean Inhib (%)", "setting": "kinases [23]", "value": "−1.3", "unit": "%"},
      {"measurement": "Mean Inhib (%)", "setting": "kinases [24]", "value": "−2.3", "unit": "%"},
      {"measurement": "Mean Inhib (%)", "setting": "kinases [25]", "value": 0.5, "unit": "%"},
      {"measurement": "Mean Inhib (%)", "setting": "kinases [26]", "value": 0.1, "unit": "%"},
      {"measurement": "Mean Inhib (%)", "setting": "kinases [27]", "value": 0.2, "unit": "%"},
      {"measurement": "Mean Inhib (%)", "setting": "kinases [28]", "value": 55.3, "unit": "%"}
    ]}
  ]
}
